Data: patent US20120316183A1, “NOVEL SOLVATES OF METHYLCARBAMATE” (Bayer Intellecutal Property GmbH, priority 2009, published 2012)

Experiment: processability of the solid form (grinding / micronization, flowability, sievability)
Assay type: physicochemical

Compound | grindability (micronization step) | flowability and sievability (compared to modification I of the compound of the formula (I)) | fineness and tail of coarse material in the micronisate (compared to modification I, micronisate)
COC(=O)Nc1c(N)nc(-c2nn(Cc3ccccc3F)c3ncccc23)nc1N [modification I, methyl {4,6-diamino-2-[1-(2-fluorobenzyl)-1H-pyrazolo[3,4-b]pyridin-3-yl]pyrimidin-5-yl}carbamate] | difficult to grind | – | –
COC(=O)Nc1c(N)nc(-c2nn(Cc3ccccc3F)c3ncccc23)nc1N [semi-ethanol solvate of the formula (Ia), semi-ethanol solvate of methyl {4,6-diamino-2-[1-(2-fluorobenzyl)-1H-Pyrazolo[3,4-b]pyridin-3-yl]pyrimidin-5-yl}carbamate] | – | better flowability and sievability | higher fine-ness and a reduced tail of coarse material
